Data: US4804684A, “Symmetrical O-substituted dioximes of benzo-fused β-diketocyclo-alkylenes, the processes for their preparation and their application as drugs” (Panmedica S.A., priority 1986, dated 1989)

Legend:
[1] = tested on: platelet-rich human plasma; platelet aggregation induced by collagen; experiment: Platelet aggregation (platelet-rich human plasma) induced in vitro by collagen; assay type: cell-based; conditions: platelet-rich human plasma, 300,000 platelets/cm^2, 10.0 μg/ml of collagen; read-out: IC50, inductor: collagen
Procedure: (§1) Study of the Effects on the Platelet Aggregation (Platelet-Rich Human Plasma) Induced in Vitro By: ADP, Collagen or Arachidonic Acid Blood samples from volunteer donors are treated and adjusted to a platelet concentration of 300,000/cm^2 and then incubated with different concentrations of the test products. Aggregation is induced by 2.0 μg/ml of ADP or by 10.0 μg/ml of collagen. The measurements are made using a Bryston-type aggregometer--or CHRONOLOG. The changes in optical density are noted and the values of the concentrations which cause a 50% inhibition are calculated.

platelet aggregation = experiment: In vitro inhibition of platelet aggregation (BORN's method), induced by collagen or ADP; assay type: cell-based, animal and human; conditions: 100 μg/ml, aspirin as reference
Procedure: In vitro inhibition of platelet aggregation The inhibition of platelet aggregation is measured in vitro by BORN's method (Nature 4832, 927 (1962)), the aggregation being induced by collagen or ADP. […] The aggregation can also be induced in vitro by serotonin, arachidonic acid and norepinephrine. Furthermore, this inhibitory effect was observed on platelet-rich plasma (PRP) of animal origin and human origin.

[2] = tested on: isolated guinea-pig intestine; experiment: Antagonistic effects on isolated guinea-pig intestine (MAGNUS); conditions: 0.1 μg/ml
[3] = tested on: platelet-rich human plasma; platelet aggregation induced by ADP; experiment: Platelet aggregation (platelet-rich human plasma) induced in vitro by ADP; assay type: cell-based; conditions: platelet-rich human plasma, 300,000 platelets/cm^2, 2.0 μg/ml of ADP; read-out: IC50, inductor: ADP
Procedure: as §1

Row | IC50 [1] [mg/L] | IC50 [3] [mg/L] | Structure (SMILES) | inhibition of platelet aggregation compared with aspirin (platelet aggregation) | inhibitory effect on isolated guinea-pig intestine [2]
1 | 24 | 10 | CCN(CC)CCON=C1CC(=NOCCN(CC)CC)c2ccccc2-c2ccccc21.Cl.Cl [Example 15, 5,7-Bis(2-Diethylaminoethoxyimino)-6,7-Dihydro-(5H)-Dibenzo[a,c]Cycloheptene Dihydrochloride] | comparable or even superior to aspirin | still substantial
2 | 22 | 16 | CCN(CC)CCON=C1CC(=NOCCN(CC)CC)c2ccccc2-c2ccccc21.O=C(O)/C=C\C(=O)O.O=C(O)/C=C\C(=O)O [Example 16, 5,7-Bis(2-Diethylaminoethoxyimino)-6,7-Dihydro-(5H)-Dibenzo[a,c]Cycloheptene Dimaleate] | comparable or even superior to aspirin | still substantial
3 | 16 | 10 | CCN(CC)CCON=C1CC(=NOCCN(CC)CC)c2ccccc2-c2ccccc21.O=C(O)C(O)C(O)C(=O)O.O=C(O)C(O)C(O)C(=O)O [Example 17, 5,7-Bis(2-Diethylaminoethoxyimino)-6,7-Dihydro-(5H)-Dibenzo[a,c]Cycloheptene Ditartrate] | comparable or even superior to aspirin | still substantial
4 | 50 | 40 | Cl.Cl.NCCON=C1CC(=NOCCN)c2ccccc2-c2ccccc21 [Example 18, 5,7-Bis(2-Aminoethoxyimino)-6,7-Dihydro-(5H)-Dibenzo[a,c]Cycloheptene Dihydrochloride] | comparable or even superior to aspirin | still substantial
5 | 175 | 100 | Cl.Cl.NCCCON=C1CC(=NOCCCN)c2ccccc2-c2ccccc21 [Example 19, 5,7-Bis(3-Aminopropoxyimino)-6,7-Dihydro-(5H)-Dibenzo[a,c]Cycloheptene Dihydrochloride] | comparable or even superior to aspirin | still substantial
